{
  "source": "patent US8933230B2",
  "about": "“Phosphorus-containing group-substituted quinoline, its preparation process, medical composition containing the compounds and application” (priority 2011, dated 2015)",
  "test_in_all_cases": "KinomeScan kinase panel",
  "type_in_all_cases": "binding",
  "key": {"[1]": {"molecular_target": "T1, ABL1-phosphorylated (Homo sapiens, UniProt P00519)", "T1 construct": "purchased DiscoveRx Corporation (KinomeScan)", "protocol": "(§1) In this example, the compound prepared in Example 10, N1-[4-[[7-[[1-(diethoxyphosphorylmethyl)-4-piperidinyl]methoxyl]-6-methoxyl-4-quinolyl]oxyl]-3-fluorophenyl]-N1′-(4-fluorophenyl)cyclopropane-1,1-dicarboxamide is tested for the inhibitory effect in the 442-kinase panel of KinomeScan™ (www.kinomescan.com) from DiscoveRx Corporation (4215 Sorrento Valley Blvd, San Diego, Calif. 92121) at 1000 nM of the compound concentration, the results are shown in the following Table 5:\n(§2) For the detailed information of the screening technique, see Fabian, M. A. et al, Nat., Biotechnol. 2005, 23, 329 and Karaman, M. W. et al, Nat., Biotechnol. 2008, 26, 127. It can be seen from the following representative results that, the compound according to the present invention has significant inhibitory effect on kinases including c-Met, KDR or VEGFR2, RET, PDGFR-β, c-KIT, Flt3, MEK5, DDR1, LOK, CSF1R, EPHA7, EPHA8, EPHB6, MKNK2, BLK, HIPK4, HCK, Flt4 and the mutants thereof"}, "[2]": {"molecular_target": "T2, ACVR1 (Homo sapiens, UniProt Q04771)", "T2 construct": "purchased DiscoveRx Corporation (KinomeScan)", "T2 sequence (Q04771 21-509)": "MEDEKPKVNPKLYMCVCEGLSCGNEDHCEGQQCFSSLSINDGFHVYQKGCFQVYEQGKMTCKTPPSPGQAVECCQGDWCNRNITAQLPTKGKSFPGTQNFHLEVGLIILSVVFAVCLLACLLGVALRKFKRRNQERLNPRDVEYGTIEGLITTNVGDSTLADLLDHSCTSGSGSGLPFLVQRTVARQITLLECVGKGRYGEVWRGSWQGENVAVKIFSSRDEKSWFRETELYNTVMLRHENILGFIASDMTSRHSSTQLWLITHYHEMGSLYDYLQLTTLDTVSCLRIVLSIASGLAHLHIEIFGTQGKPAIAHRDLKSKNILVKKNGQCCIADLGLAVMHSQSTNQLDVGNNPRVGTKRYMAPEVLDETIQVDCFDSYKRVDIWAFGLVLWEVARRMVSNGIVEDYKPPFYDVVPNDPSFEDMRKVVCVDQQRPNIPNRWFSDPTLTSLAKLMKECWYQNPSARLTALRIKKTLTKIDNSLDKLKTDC", "protocol": "as §1, §2"}, "[3]": {"molecular_target": "T3, AMPK-alpha1 (Homo sapiens, UniProt Q13131)", "T3 construct": "purchased DiscoveRx Corporation (KinomeScan)", "protocol": "as §1, §2"}, "[4]": {"molecular_target": "T4, ASK1 (Homo sapiens, UniProt Q99683)", "T4 construct": "purchased DiscoveRx Corporation (KinomeScan)", "protocol": "as §1, §2"}, "[5]": {"molecular_target": "T5, CDC2L1 (Homo sapiens, UniProt P21127)", "T5 construct": "purchased DiscoveRx Corporation (KinomeScan)", "protocol": "as §1, §2"}, "[6]": {"molecular_target": "T6, CDK2 (Homo sapiens, UniProt P24941)", "T6 construct": "purchased DiscoveRx Corporation (KinomeScan)", "protocol": "as §1, §2"}, "[7]": {"molecular_target": "T7, CIT (Homo sapiens, UniProt O14578)", "T7 construct": "purchased DiscoveRx Corporation (KinomeScan)", "protocol": "as §1, §2"}, "[8]": {"molecular_target": "T8, EGFR(L747-E749del,A750P) (Homo sapiens, UniProt P00533, A750P/DEL747-749)", "T8 construct": "purchased DiscoveRx Corporation (KinomeScan)", "protocol": "as §1, §2"}, "[9]": {"molecular_target": "T9, EPHA3 (Homo sapiens, UniProt P29320)", "T9 construct": "purchased DiscoveRx Corporation (KinomeScan)", "T9 sequence (P29320 21-983)": "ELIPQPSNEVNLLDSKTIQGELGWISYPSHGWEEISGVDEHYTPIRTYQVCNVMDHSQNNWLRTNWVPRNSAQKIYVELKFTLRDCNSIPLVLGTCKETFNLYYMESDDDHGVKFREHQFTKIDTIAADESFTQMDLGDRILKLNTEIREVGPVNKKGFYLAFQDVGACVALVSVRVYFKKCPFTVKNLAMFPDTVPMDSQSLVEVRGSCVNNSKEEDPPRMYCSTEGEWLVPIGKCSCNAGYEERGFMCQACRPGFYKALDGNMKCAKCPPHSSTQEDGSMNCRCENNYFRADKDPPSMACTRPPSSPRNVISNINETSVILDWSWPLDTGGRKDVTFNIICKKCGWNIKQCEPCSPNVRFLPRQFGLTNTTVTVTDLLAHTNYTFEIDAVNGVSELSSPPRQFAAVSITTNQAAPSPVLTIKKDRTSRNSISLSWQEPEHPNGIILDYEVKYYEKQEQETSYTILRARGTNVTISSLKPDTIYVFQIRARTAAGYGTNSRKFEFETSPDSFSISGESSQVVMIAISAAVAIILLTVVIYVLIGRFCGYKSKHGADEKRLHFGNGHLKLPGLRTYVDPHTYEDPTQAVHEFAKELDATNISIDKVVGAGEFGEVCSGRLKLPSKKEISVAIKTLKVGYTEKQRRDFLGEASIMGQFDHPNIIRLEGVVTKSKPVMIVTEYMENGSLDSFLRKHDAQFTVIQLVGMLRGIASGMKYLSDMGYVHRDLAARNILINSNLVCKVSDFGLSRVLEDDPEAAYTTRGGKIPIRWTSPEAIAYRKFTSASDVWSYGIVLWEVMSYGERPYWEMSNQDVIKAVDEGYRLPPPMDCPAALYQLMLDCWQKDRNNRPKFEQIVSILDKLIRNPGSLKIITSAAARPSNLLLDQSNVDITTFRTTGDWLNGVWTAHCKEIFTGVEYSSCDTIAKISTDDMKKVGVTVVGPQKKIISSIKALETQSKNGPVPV", "protocol": "as §1, §2"}, "[10]": {"molecular_target": "T10, EPHA6 (Homo sapiens, UniProt Q9UF33)", "T10 construct": "purchased DiscoveRx Corporation (KinomeScan)", "protocol": "as §1, §2"}, "[11]": {"molecular_target": "T11, ERK2 (Homo sapiens, UniProt P28482)", "T11 construct": "purchased DiscoveRx Corporation (KinomeScan)", "protocol": "as §1, §2"}, "[12]": {"molecular_target": "T12, ERK8 (Homo sapiens, UniProt Q8TD08)", "T12 construct": "purchased DiscoveRx Corporation (KinomeScan)", "protocol": "as §1, §2"}, "[13]": {"molecular_target": "T13, FGFR (Homo sapiens, UniProt P21802)", "T13 construct": "purchased DiscoveRx Corporation (KinomeScan)", "protocol": "as §1, §2"}, "[14]": {"molecular_target": "T14, FGFR1 (Homo sapiens, UniProt P11362)", "T14 construct": "purchased DiscoveRx Corporation (KinomeScan)", "protocol": "as §1, §2"}, "[15]": {"molecular_target": "T15, FGFR3 (Homo sapiens, UniProt P22607)", "T15 construct": "purchased DiscoveRx Corporation (KinomeScan)", "T15 sequence (P22607 23-806)": "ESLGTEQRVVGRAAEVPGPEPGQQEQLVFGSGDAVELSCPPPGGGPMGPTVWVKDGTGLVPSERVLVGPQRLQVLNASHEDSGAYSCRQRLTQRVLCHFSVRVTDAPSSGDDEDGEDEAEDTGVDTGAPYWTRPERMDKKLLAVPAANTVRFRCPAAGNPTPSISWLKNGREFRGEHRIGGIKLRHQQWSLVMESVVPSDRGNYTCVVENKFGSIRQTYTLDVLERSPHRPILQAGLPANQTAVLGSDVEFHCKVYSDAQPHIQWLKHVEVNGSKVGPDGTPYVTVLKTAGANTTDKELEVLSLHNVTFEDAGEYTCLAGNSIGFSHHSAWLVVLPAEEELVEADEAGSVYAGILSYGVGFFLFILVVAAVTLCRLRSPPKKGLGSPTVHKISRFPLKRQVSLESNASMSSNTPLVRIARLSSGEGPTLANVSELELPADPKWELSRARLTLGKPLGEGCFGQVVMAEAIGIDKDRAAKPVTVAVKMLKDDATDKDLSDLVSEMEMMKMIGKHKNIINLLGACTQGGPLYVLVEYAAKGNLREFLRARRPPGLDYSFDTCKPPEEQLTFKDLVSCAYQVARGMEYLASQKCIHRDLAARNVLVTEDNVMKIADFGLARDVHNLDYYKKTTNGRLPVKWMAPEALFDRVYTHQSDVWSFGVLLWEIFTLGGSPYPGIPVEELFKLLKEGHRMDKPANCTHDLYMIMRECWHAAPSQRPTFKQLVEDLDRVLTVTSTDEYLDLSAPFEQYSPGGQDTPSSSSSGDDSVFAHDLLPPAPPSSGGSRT", "protocol": "as §1, §2"}, "[16]": {"molecular_target": "T16, FGFR3(G697C) (Homo sapiens, UniProt P22607, G697C)", "T16 construct": "purchased DiscoveRx Corporation (KinomeScan)", "T16 sequence (P22607 23-806 G697C)": "as the sequence (P22607 23-806) above, with G675C counted along it", "protocol": "as §1, §2"}, "[17]": {"molecular_target": "T17, GRK1 (Homo sapiens, UniProt Q15835)", "T17 construct": "purchased DiscoveRx Corporation (KinomeScan)", "T17 sequence (Q15835 whole entry)": "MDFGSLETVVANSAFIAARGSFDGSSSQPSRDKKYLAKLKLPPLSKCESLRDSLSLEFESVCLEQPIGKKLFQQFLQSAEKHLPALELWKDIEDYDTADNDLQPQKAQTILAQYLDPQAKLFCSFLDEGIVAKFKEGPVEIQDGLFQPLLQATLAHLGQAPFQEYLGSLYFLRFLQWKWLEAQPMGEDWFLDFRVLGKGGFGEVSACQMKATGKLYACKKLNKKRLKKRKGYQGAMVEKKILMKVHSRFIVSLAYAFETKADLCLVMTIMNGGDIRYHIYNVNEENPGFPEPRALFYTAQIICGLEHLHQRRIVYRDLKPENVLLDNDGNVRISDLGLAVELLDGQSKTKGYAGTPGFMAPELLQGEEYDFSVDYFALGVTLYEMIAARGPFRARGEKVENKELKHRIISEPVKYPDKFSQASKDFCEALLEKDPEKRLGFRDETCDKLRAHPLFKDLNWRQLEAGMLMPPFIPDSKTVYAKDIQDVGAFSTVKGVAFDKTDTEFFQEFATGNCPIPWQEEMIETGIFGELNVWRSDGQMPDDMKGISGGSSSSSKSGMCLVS", "protocol": "as §1, §2"}, "[18]": {"molecular_target": "T18, HPK1 (Homo sapiens, UniProt Q92918)", "T18 construct": "purchased DiscoveRx Corporation (KinomeScan)", "protocol": "as §1, §2"}, "[19]": {"molecular_target": "T19, ITK (Homo sapiens, UniProt Q08881)", "T19 construct": "purchased DiscoveRx Corporation (KinomeScan)", "protocol": "as §1, §2"}, "[20]": {"molecular_target": "T20, MAP3K4 (Homo sapiens, UniProt Q9Y6R4)", "T20 construct": "purchased DiscoveRx Corporation (KinomeScan)", "protocol": "as §1, §2"}, "[21]": {"molecular_target": "T21, MAST1 (Homo sapiens, UniProt Q9Y2H9)", "T21 construct": "purchased DiscoveRx Corporation (KinomeScan)", "protocol": "as §1, §2"}, "[22]": {"molecular_target": "T22, MKNK1 (Homo sapiens, UniProt Q9BUB5)", "T22 construct": "purchased DiscoveRx Corporation (KinomeScan)", "protocol": "as §1, §2"}, "[23]": {"molecular_target": "T23, MST2 (Homo sapiens, UniProt Q13188)", "T23 construct": "purchased DiscoveRx Corporation (KinomeScan)", "protocol": "as §1, §2"}, "[24]": {"molecular_target": "T24, NEK2 (Homo sapiens, UniProt P51955)", "T24 construct": "purchased DiscoveRx Corporation (KinomeScan)", "protocol": "as §1, §2"}, "[25]": {"molecular_target": "T25, NEK6 (Homo sapiens, UniProt Q9HC98)", "T25 construct": "purchased DiscoveRx Corporation (KinomeScan panel)", "protocol": "as §1, §2"}, "[26]": {"molecular_target": "T26, PAK6 (Homo sapiens, UniProt Q9NQU5)", "T26 construct": "purchased DiscoveRx Corporation (KinomeScan panel)", "T26 sequence (Q9NQU5 whole entry)": "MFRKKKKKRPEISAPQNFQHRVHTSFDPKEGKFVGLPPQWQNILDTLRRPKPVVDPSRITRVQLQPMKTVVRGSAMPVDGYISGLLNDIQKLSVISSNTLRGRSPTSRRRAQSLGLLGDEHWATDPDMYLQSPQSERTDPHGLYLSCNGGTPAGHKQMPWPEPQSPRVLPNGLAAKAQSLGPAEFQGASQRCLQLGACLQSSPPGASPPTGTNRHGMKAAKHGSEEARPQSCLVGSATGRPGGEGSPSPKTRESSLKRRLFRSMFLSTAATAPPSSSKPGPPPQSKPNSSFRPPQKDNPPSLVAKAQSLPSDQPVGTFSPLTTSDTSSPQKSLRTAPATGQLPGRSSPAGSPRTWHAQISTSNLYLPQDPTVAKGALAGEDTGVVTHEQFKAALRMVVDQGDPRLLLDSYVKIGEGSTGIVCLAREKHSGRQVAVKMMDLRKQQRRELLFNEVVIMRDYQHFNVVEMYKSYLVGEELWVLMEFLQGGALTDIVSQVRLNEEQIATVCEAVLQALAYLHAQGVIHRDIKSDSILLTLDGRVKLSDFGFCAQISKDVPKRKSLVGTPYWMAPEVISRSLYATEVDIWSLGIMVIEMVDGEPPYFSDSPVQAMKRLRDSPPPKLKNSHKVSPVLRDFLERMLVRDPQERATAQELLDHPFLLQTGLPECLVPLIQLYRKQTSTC", "protocol": "as §1, §2"}, "[27]": {"molecular_target": "T27, PIK3CA (Homo sapiens, UniProt P42336)", "T27 construct": "purchased DiscoveRx Corporation (KinomeScan)", "protocol": "as §1, §2"}, "[28]": {"molecular_target": "T28, PLK1 (Homo sapiens, UniProt P53350)", "T28 construct": "purchased DiscoveRx Corporation (KinomeScan)", "protocol": "as §1, §2"}, "[29]": {"molecular_target": "T29, PRKX (Homo sapiens, UniProt P51817)", "T29 construct": "purchased DiscoveRx Corporation", "T29 sequence (P51817 whole entry)": "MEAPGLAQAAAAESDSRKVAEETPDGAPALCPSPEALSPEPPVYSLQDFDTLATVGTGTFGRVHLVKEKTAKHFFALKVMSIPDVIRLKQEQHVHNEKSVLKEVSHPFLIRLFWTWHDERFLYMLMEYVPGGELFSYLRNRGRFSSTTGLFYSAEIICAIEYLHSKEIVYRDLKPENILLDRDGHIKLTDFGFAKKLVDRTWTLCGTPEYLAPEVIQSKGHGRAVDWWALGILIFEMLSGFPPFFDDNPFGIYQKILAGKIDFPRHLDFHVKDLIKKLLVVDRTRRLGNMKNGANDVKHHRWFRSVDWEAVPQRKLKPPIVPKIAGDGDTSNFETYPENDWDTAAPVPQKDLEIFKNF", "protocol": "as §1, §2"}, "[30]": {"molecular_target": "T30, RAF1 (Homo sapiens, UniProt P04049)", "T30 construct": "purchased DiscoveRx Corporation", "protocol": "as §1, §2"}, "[31]": {"molecular_target": "T31, RIOK1 (Homo sapiens, UniProt Q9BRS2)", "T31 construct": "purchased DiscoveRx Corporation", "protocol": "as §1, §2"}, "[32]": {"molecular_target": "T32, ROCK2 (Homo sapiens, UniProt O75116)", "T32 construct": "purchased DiscoveRx Corporation", "protocol": "as §1, §2"}, "[33]": {"molecular_target": "T33, TAK1 (Homo sapiens, UniProt O43318)", "T33 construct": "purchased DiscoveRx Corporation (KinomeScan)", "protocol": "as §1, §2"}, "[34]": {"molecular_target": "T34, TAOK3 (Homo sapiens, UniProt Q9H2K8)", "T34 construct": "purchased DiscoveRx Corporation (KinomeScan)", "protocol": "as §1, §2"}, "[35]": {"molecular_target": "T35, TIE1 (Homo sapiens, UniProt P35590)", "T35 construct": "purchased DiscoveRx Corporation (KinomeScan)", "T35 sequence (P35590 22-1138)": "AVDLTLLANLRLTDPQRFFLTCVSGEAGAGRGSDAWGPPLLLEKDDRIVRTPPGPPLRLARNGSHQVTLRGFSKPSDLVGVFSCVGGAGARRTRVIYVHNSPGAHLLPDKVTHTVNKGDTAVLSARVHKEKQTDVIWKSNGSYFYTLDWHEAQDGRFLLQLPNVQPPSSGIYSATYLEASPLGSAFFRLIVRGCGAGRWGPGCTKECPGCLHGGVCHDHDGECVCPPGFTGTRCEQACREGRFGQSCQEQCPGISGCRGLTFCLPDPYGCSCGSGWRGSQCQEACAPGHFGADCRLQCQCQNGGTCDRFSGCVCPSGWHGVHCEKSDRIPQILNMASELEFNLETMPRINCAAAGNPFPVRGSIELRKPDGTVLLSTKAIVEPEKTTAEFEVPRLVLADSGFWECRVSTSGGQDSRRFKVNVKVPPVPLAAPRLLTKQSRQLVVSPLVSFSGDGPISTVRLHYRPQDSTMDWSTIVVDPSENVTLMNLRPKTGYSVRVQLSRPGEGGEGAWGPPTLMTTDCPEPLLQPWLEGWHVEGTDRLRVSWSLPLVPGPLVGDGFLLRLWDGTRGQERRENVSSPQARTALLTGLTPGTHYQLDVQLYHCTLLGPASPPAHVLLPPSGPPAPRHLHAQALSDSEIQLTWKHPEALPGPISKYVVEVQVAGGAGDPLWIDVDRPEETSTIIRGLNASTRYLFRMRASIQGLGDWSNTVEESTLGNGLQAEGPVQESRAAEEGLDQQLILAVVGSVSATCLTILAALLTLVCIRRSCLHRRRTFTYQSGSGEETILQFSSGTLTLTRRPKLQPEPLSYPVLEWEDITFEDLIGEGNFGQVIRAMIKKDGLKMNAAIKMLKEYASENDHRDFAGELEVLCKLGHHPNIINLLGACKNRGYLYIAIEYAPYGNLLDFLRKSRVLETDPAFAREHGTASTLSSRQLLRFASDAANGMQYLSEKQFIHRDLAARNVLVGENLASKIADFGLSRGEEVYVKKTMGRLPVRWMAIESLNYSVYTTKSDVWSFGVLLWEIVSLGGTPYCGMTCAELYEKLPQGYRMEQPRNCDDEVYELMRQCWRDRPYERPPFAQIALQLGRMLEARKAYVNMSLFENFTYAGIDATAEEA", "protocol": "as §1, §2"}, "[36]": {"molecular_target": "T36, ZAP7C (Homo sapiens, UniProt P43403)", "T36 construct": "purchased DiscoveRx Corporation (KinomeScan service)", "protocol": "as §1, §2"}},
  "data": [
    {"smiles": "CCOP(=O)(CN1CCC(COc2cc3nccc(Oc4ccc(NC(=O)C5(C(=O)Nc6ccc(F)cc6)CC5)cc4F)c3cc2OC)CC1)OCC", "note": "[Example 10, N1-[4-[[7-[[1-(diethoxyphosphorylmethyl)-4-piperidinyl]methoxyl]-6-methoxyl-4-quinolyl]oxyl]-3-fluorophenyl]-N1′-(4-fluorophenyl)cyclopropane-1,1-dicarboxamide]", "values": [
      {"measurement": "% Ctrl@1000 nM", "setting": "[1]", "result": 33, "unit": "% Ctrl"},
      {"measurement": "% Ctrl@1000 nM", "setting": "[2]", "result": 100, "unit": "% Ctrl"},
      {"measurement": "% Ctrl@1000 nM", "setting": "[3]", "result": 100, "unit": "% Ctrl"},
      {"measurement": "% Ctrl@1000 nM", "setting": "[4]", "result": 100, "unit": "% Ctrl"},
      {"measurement": "% Ctrl@1000 nM", "setting": "[5]", "result": 100, "unit": "% Ctrl"},
      {"measurement": "% Ctrl@1000 nM", "setting": "[6]", "result": 100, "unit": "% Ctrl"},
      {"measurement": "% Ctrl@1000 nM", "setting": "[7]", "result": 100, "unit": "% Ctrl"},
      {"measurement": "% Ctrl@1000 nM", "setting": "[8]", "result": 67, "unit": "% Ctrl"},
      {"measurement": "% Ctrl@1000 nM", "setting": "[9]", "result": 6, "unit": "% Ctrl"},
      {"measurement": "% Ctrl@1000 nM", "setting": "[10]", "result": 4.8, "unit": "% Ctrl"},
      {"measurement": "% Ctrl@1000 nM", "setting": "[11]", "result": 100, "unit": "% Ctrl"},
      {"measurement": "% Ctrl@1000 nM", "setting": "[12]", "result": 95, "unit": "% Ctrl"},
      {"measurement": "% Ctrl@1000 nM", "setting": "[13]", "result": 76, "unit": "% Ctrl"},
      {"measurement": "% Ctrl@1000 nM", "setting": "[14]", "result": 100, "unit": "% Ctrl"},
      {"measurement": "% Ctrl@1000 nM", "setting": "[15]", "result": 69, "unit": "% Ctrl"},
      {"measurement": "% Ctrl@1000 nM", "setting": "[16]", "result": 100, "unit": "% Ctrl"},
      {"measurement": "% Ctrl@1000 nM", "setting": "[17]", "result": 100, "unit": "% Ctrl"},
      {"measurement": "% Ctrl@1000 nM", "setting": "[18]", "result": 40, "unit": "% Ctrl"},
      {"measurement": "% Ctrl@1000 nM", "setting": "[19]", "result": 34, "unit": "% Ctrl"},
      {"measurement": "% Ctrl@1000 nM", "setting": "[20]", "result": 100, "unit": "% Ctrl"},
      {"measurement": "% Ctrl@1000 nM", "setting": "[21]", "result": 100, "unit": "% Ctrl"},
      {"measurement": "% Ctrl@1000 nM", "setting": "[22]", "result": 45, "unit": "% Ctrl"},
      {"measurement": "% Ctrl@1000 nM", "setting": "[23]", "result": 100, "unit": "% Ctrl"},
      {"measurement": "% Ctrl@1000 nM", "setting": "[24]", "result": 100, "unit": "% Ctrl"},
      {"measurement": "% Ctrl@1000 nM", "setting": "[25]", "result": 100, "unit": "% Ctrl"},
      {"measurement": "% Ctrl@1000 nM", "setting": "[26]", "result": 87, "unit": "% Ctrl"},
      {"measurement": "% Ctrl@1000 nM", "setting": "[27]", "result": 100, "unit": "% Ctrl"},
      {"measurement": "% Ctrl@1000 nM", "setting": "[28]", "result": 100, "unit": "% Ctrl"},
      {"measurement": "% Ctrl@1000 nM", "setting": "[29]", "result": 81, "unit": "% Ctrl"},
      {"measurement": "% Ctrl@1000 nM", "setting": "[30]", "result": 100, "unit": "% Ctrl"},
      {"measurement": "% Ctrl@1000 nM", "setting": "[31]", "result": 100, "unit": "% Ctrl"},
      {"measurement": "% Ctrl@1000 nM", "setting": "[32]", "result": 100, "unit": "% Ctrl"},
      {"measurement": "% Ctrl@1000 nM", "setting": "[33]", "result": 75, "unit": "% Ctrl"},
      {"measurement": "% Ctrl@1000 nM", "setting": "[34]", "result": 100, "unit": "% Ctrl"},
      {"measurement": "% Ctrl@1000 nM", "setting": "[35]", "result": 4, "unit": "% Ctrl"},
      {"measurement": "% Ctrl@1000 nM", "setting": "[36]", "result": 81, "unit": "% Ctrl"}
    ]}
  ]
}
